In ChEMBL document CHEMBL1129855, “Molecular connectivity to find -blockers with low toxicity” (Bioorg Med Chem Lett, 1997) one finds LD50 data, which are given here for 29 compounds.

Holding throughout (details): mouse, in vivo
A short description of data set [1]: Compound was tested for its toxicity after oral administration to mice in experiment 1.
A short description of data set [2]: Compound was tested for its toxicity after oral administration to mice in experiment 2.
A short description of data set [3]: Compound was tested for its toxicity after intravenous administration in mice.
A short description of data set [4]: Compound was tested for its toxicity after oral administration in mice.
Data set [5] is described as follows: Compound was tested for its toxicity after intravenous administration to mice in experiment 1.
Data set [6] in a line: Compound was tested for its toxicity after intravenous administration to mice in experiment 2.
Data set [7] in a line: The activity was measured in mice after oral administration of the compound. The data set is classed as ADME.
Data set [8] in a line: Compound was tested for its toxicity after intravenous administration to mice.

`O=C(O)C1CCc2cc(C3CCCCC3)c(Cl)cc21` (stereo unspecified): the results for the LD50 in data set [1], in data set [2] and in data set [3] were 41 mg/kg, 252 mg/kg and 34 mg/kg, respectively.
Regarding `CCCCCC(O)C1C(=O)OC(C)C(O)/C=C/C=C/C=C/C=C/C=C(\C)C(O)CC(O)CC(O)CC(O)CC(O)CC(O)CC1O` (stereo unspecified), the LD50 (in general, the dose expected to kill half of the subjects tested) is 18 mg/kg in data set [4] and 5 mg/kg in data set [3].
Turning to `CC(C)(C)NCC(O)COc1cccc2c1CCCC2=O` (single isomer, unassigned) [LEVOBUNOLOL], the LD50 in data set [1] was 700 mg/kg; in data set [5] it was 25 mg/kg; in data set [2], 798 mg/kg; in data set [6], 37.7 mg/kg.
Regarding `CCCC(=O)Nc1ccc(OCC(O)CNC(C)C)c(C(C)=O)c1` (stereo unspecified) [ACEBUTOLOL], the 50% lethal dose (LD50) in data set [5] came out at 76 mg/kg; in data set [6], 82.2 mg/kg.
Turning to `C=CCc1ccccc1OCC(O)CNC(C)C` (stereo unspecified) [ALPRENOLOL], the LD50 came out at 278 mg/kg in data set [1] and 415 mg/kg in data set [2].
In data set [6], `CC(C)(C)NCC(O)CSc1nc(-c2ccc(C(N)=O)s2)cs1` (stereo unspecified) [AROTINOLOL] gave a 50% lethal dose (LD50) of 57.8 mg/kg.
`CC(=O)c1cc2cccc(OCC(O)CNC(C)C)c2o1` (stereo unspecified) [BEFUNOLOL]: the results for the median lethal dose (LD50) in data set [5] and in data set [6] were 102 mg/kg and 75.1 mg/kg, respectively.
In the case of `CC1=C(/C=C/C(C)=C/C=C/C(C)=C/C=C/C=C(C)/C=C/C=C(C)/C=C/C2=C(C)CCCC2(C)C)C(C)(C)CCC1` [BETA CAROTENE], the LD50 in data set [7] worked out at 6750 mg/kg; in data set [4], 26 mg/kg.
As to `CC(C)NCC(O)COc1ccc(CCOCC2CC2)cc1` (stereo unspecified) [BETAXOLOL], the median lethal dose (LD50) in data set [1] was 944 mg/kg; in data set [5] it was 37 mg/kg; in data set [2] it was 625 mg/kg; in data set [6], 38 mg/kg.
On to `Cc1cc2c(OCC(CNC(C)(C)C)OC(=O)c3ccccc3)cccc2[nH]1` (stereo unspecified) [BOPINDOLOL], for which the LD50 was found to be 17 mg/kg in data set [5] and 15.9 mg/kg in data set [6].
Regarding `Cc1ccc(OCC(O)CNC(C)(C)C)c2oc(=O)ccc12` (stereo unspecified) [BUCUMOLOL], the LD50 in data set [1] amounted to 676 mg/kg; in data set [5] it was 33.1 mg/kg; in data set [2], 828 mg/kg; in data set [6], 46.8 mg/kg.
In the case of `CC(C)(C)NCC(O)COc1ccccc1OCC1CCCO1` (stereo unspecified) [BUFETOLOL], the LD50 in data set [1] turned out to be 409 mg/kg; in data set [2], 238 mg/kg.
For the compound `CCc1cccc2cc(C(O)CNC(C)(C)C)oc12` (stereo unspecified) [BUFURALOL], the LD50 in data set [1] came to 117 mg/kg; in data set [5] it was 29.7 mg/kg; in data set [2] it was 273 mg/kg; in data set [6], 25.9 mg/kg.
On to `CC(C)(C)NCC(O)COc1ccccc1C#N` (stereo unspecified) [BUNITROLOL], for which the results for the median lethal dose (LD50) in data set [1] and in data set [2] were 1350 mg/kg and 998 mg/kg, respectively.
Regarding `CCC(C)NCC(O)c1ccc2c(c1)CCCC2` (stereo unspecified) [BUTIDRINE], the LD50 in data set [1] was 235 mg/kg; in data set [5] it was 20.2 mg/kg; in data set [2], 212 mg/kg; in data set [6] it was 24.6 mg/kg.
`CC(C)(C)NCC(O)COc1cccc2c1CCC(=O)N2` (stereo unspecified) [CARTEOLOL]: the LD50 in data set [1] came out at 810 mg/kg; in data set [2], 656 mg/kg; in data set [6], 39.4 mg/kg.
For the compound `CCN(CC)C(=O)Nc1ccc(OCC(O)CNC(C)(C)C)c(C(C)=O)c1` (stereo unspecified) [CELIPROLOL], the median lethal dose (LD50) in data set [1] came to 1830 mg/kg; in data set [5], 56.2 mg/kg; in data set [2], 1770 mg/kg; in data set [6], 42.8 mg/kg.
On to `CC(C)NCC(O)COc1cccc2c1C=CC2` (stereo unspecified) [INDENOLOL], for which the results for the median lethal dose (LD50) in data set [5] and in data set [6] were 26 mg/kg and 32.4 mg/kg, respectively.
Turning to `CC(CCc1ccccc1)NCC(O)c1ccc(O)c(C(N)=O)c1` (stereo unspecified) [LABETALOL], the LD50 was 1450 mg/kg in data set [1], 47 mg/kg in data set [5], 1370 mg/kg in data set [2] and 51.1 mg/kg in data set [6].
Consider `CC(=O)Oc1c(C)cc(OCC(O)CNC(C)C)c(C)c1C` (stereo unspecified) [METIPRANOLOL], for which the values for the median lethal dose (LD50) in data set [5] and in data set [6] were 31 mg/kg and 38.8 mg/kg, respectively.
Regarding `COCCc1ccc(OCC(O)CNC(C)C)cc1` (stereo unspecified) [METOPROLOL], the median lethal dose (LD50) in data set [1] came to 2090 mg/kg; in data set [5], 118 mg/kg; in data set [2], 3060 mg/kg; in data set [6] it was 292 mg/kg.
Consider `CC(C)(C)NCC(O)COc1cccc2c1C[C@H](O)[C@H](O)C2` (stereo partly specified) [NADOLOL], for which the 50% lethal dose (LD50) worked out at 4500 mg/kg in data set [1] and 2710 mg/kg in data set [2].
Consider `N/C(CC(O)COc1cccc2ccccc12)=N/O` (stereo unspecified) [NADOXOLOL], for which the LD50 in data set [1] turned out to be 1000 mg/kg; in data set [5], 180 mg/kg; in data set [2] it was 710 mg/kg; in data set [6] it was 119 mg/kg.
For `CC(C)(Sc1cc(C(C)(C)C)c(O)c(C(C)(C)C)c1)Sc1cc(C(C)(C)C)c(O)c(C(C)(C)C)c1` [PROBUCOL], the results for the LD50 in data set [1] and in data set [8] were greater than 5000 mg/kg and 25 mg/kg, respectively.
Consider `CC(C)NCC(O)c1ccc2ccccc2c1` (stereo unspecified) [PRONETALOL], for which the median lethal dose (LD50) in data set [1] came out at 512 mg/kg; in data set [5] it was 46 mg/kg; in data set [2] it was 486 mg/kg; in data set [6] it was 38 mg/kg.
For `CC(C)NCC(O)c1ccc(NS(C)(=O)=O)cc1` (stereo unspecified) [SOTALOL], the median lethal dose (LD50) worked out at 2600 mg/kg in data set [1] and 2630 mg/kg in data set [2].
Regarding `CC(C)(C)NCC(O)COc1ccc(NC(=O)NC2CCCCC2)cc1` (stereo unspecified) [TALINOLOL], the LD50 in data set [1] was found to be 593 mg/kg; in data set [5], 25 mg/kg; in data set [2], 1050 mg/kg; in data set [6] it was 25.8 mg/kg.
With `CC(C)(C)NCC(O)COc1cccc2c1SCCC2` (stereo unspecified) [TERTATOLOL], the figures for the LD50 in data set [5] and in data set [6] were 37 mg/kg and 34.1 mg/kg, respectively.
For the compound `CC(C)(C)NC[C@H](O)COc1nsnc1N1CCOCC1` [TIMOLOL], the median lethal dose (LD50) is 1190 mg/kg in data set [1] and 1460 mg/kg in data set [2].
